Source: the supplement of paper PMC10307832

Legend:
Assay in all cases: relative viability (nuclei count vs DMSO), 5 days (fraction); higher = more cells survive
A549 = tested on: A549
Outline: (§1)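 Each reported value is a median over duplicate plates. It expresses relative viability: treated-well nuclei count divided by vehicle-well nuclei count. Lung cancer cell lines in 1536-well plates were dosed by pin tool a day after seeding, alone with one drug or with a fixed anchor-drug dose plus five library-drug doses (not always all listed) in √10 steps, and nuclei were counted after 5 days.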

CAL-12T = tested on: CAL-12T
Outline: as §1

Calu-6 = tested on: Calu-6
Outline: as §1

EBC-1 = tested on: EBC-1
Outline: as §1

IA-LM = tested on: IA-LM
Outline: as §1

NCI-H1299 = tested on: NCI-H1299
Outline: as §1

NCI-H1703 = tested on: NCI-H1703
Outline: as §1

SMILES: C[C@@H]1CN(CC(=O)Nc2ccc3c(c2)Cc2cccc(-c4cc(=O)cc(N5CCOCC5)o4)c2S3)C[C@H](C)O1 + CS(=O)(=O)CCNCc1ccc(-c2ccc3ncnc(Nc4ccc(OCc5cccc(F)c5)c(Cl)c4)c3c2)o1 [Lapatinib] (partner 2 µM)
- relative viability (A549; first compound 0.04 µM): 0.986
- relative viability (A549; first compound 0.1265 µM): 0.917
- relative viability (A549; first compound 0.4 µM): 1.14
- relative viability (A549; first compound 4 µM): 0.831
- relative viability (CAL-12T; first compound 0.04 µM): 0.28
- relative viability (CAL-12T; first compound 0.1265 µM): 0.69
- relative viability (CAL-12T; first compound 0.4 µM): 0.667
- relative viability (CAL-12T; first compound 4 µM): 0.636
- relative viability (Calu-6; first compound 0.04 µM): 1.09
- relative viability (Calu-6; first compound 0.1265 µM): 1.06
- relative viability (Calu-6; first compound 0.4 µM): 0.96
- relative viability (Calu-6; first compound 4 µM): 0.775
- relative viability (EBC-1; first compound 0.04 µM): 0.255
- relative viability (EBC-1; first compound 0.1265 µM): 0.219
- relative viability (EBC-1; first compound 0.4 µM): 0.214
- relative viability (EBC-1; first compound 4 µM): 0.208
- relative viability (IA-LM; first compound 0.04 µM): 0.951
- relative viability (IA-LM; first compound 0.1265 µM): 0.777
- relative viability (IA-LM; first compound 0.4 µM): 0.956
- relative viability (IA-LM; first compound 4 µM): 0.339
- relative viability (NCI-H1299; first compound 0.04 µM): 1.01
- relative viability (NCI-H1299; first compound 0.1265 µM): 0.956
- relative viability (NCI-H1299; first compound 0.4 µM): 1.01
- relative viability (NCI-H1299; first compound 4 µM): 0.816
- relative viability (NCI-H1703; first compound 0.04 µM): 1.24
- relative viability (NCI-H1703; first compound 0.1265 µM): 1.1
- relative viability (NCI-H1703; first compound 0.4 µM): 0.955
- relative viability (NCI-H1703; first compound 4 µM): 0.688

SMILES: Clc1ccc(Nc2nnc(Cc3ccncc3)c3ccccc23)cc1 [Vatalanib] + CC1(C)CCC(c2ccc(Cl)cc2)=C(CN2CCN(c3ccc(C(=O)NS(=O)(=O)c4ccc(N[C@H](CCN5CCOCC5)CSc5ccccc5)c(S(=O)(=O)C(F)(F)F)c4)cc3)CC2)C1 [Navitoclax] (partner 0.5 µM)
- relative viability (A549; first compound 0.04 µM): 1.21
- relative viability (A549; first compound 0.1265 µM): 1.33
- relative viability (A549; first compound 0.4 µM): 1.31
- relative viability (A549; first compound 1.265 µM): 1.16
- relative viability (A549; first compound 4 µM): 1.06
- relative viability (CAL-12T; first compound 0.04 µM): 1.17
- relative viability (CAL-12T; first compound 0.1265 µM): 1.2
- relative viability (CAL-12T; first compound 0.4 µM): 1.28
- relative viability (CAL-12T; first compound 1.265 µM): 1.15
- relative viability (CAL-12T; first compound 4 µM): 1.31
- relative viability (Calu-6; first compound 0.04 µM): 0.919
- relative viability (Calu-6; first compound 0.1265 µM): 0.756
- relative viability (Calu-6; first compound 0.4 µM): 0.913
- relative viability (Calu-6; first compound 1.265 µM): 0.788
- relative viability (Calu-6; first compound 4 µM): 0.757
- relative viability (EBC-1; first compound 0.04 µM): 0.382
- relative viability (EBC-1; first compound 0.1265 µM): 0.396
- relative viability (EBC-1; first compound 0.4 µM): 0.46
- relative viability (EBC-1; first compound 1.265 µM): 0.368
- relative viability (EBC-1; first compound 4 µM): 0.328
- relative viability (IA-LM; first compound 0.04 µM): 0.869
- relative viability (IA-LM; first compound 0.1265 µM): 0.701
- relative viability (IA-LM; first compound 0.4 µM): 0.686
- relative viability (IA-LM; first compound 1.265 µM): 0.746
- relative viability (IA-LM; first compound 4 µM): 0.737
- relative viability (NCI-H1299; first compound 0.04 µM): 1.04
- relative viability (NCI-H1299; first compound 0.1265 µM): 1.05
- relative viability (NCI-H1299; first compound 0.4 µM): 1.06
- relative viability (NCI-H1299; first compound 1.265 µM): 1.04
- relative viability (NCI-H1299; first compound 4 µM): 1.06
- relative viability (NCI-H1703; first compound 0.04 µM): 0.994
- relative viability (NCI-H1703; first compound 0.4 µM): 1.71
- relative viability (NCI-H1703; first compound 1.265 µM): 0.643
- relative viability (NCI-H1703; first compound 4 µM): 0.301

SMILES: CC(C)Oc1cc(Nc2nc(N[C@@H](C)c3ccc(F)cn3)ncc2Cl)n[nH]1 [AZ23] + CC1(C)CCC(c2ccc(Cl)cc2)=C(CN2CCN(c3ccc(C(=O)NS(=O)(=O)c4ccc(N[C@H](CCN5CCOCC5)CSc5ccccc5)c(S(=O)(=O)C(F)(F)F)c4)cc3)CC2)C1 [Navitoclax] (partner 0.5 µM)
- relative viability (A549; first compound 0.01 µM): 1.58
- relative viability (A549; first compound 0.03162 µM): 1.48
- relative viability (A549; first compound 0.3162 µM): 1.2
- relative viability (CAL-12T; first compound 0.01 µM): 0.61
- relative viability (CAL-12T; first compound 0.03162 µM): 1.28
- relative viability (CAL-12T; first compound 0.3162 µM): 1.17
- relative viability (Calu-6; first compound 0.03162 µM): 0.952
- relative viability (Calu-6; first compound 0.3162 µM): 0.739
- relative viability (EBC-1; first compound 0.01 µM): 0.37
- relative viability (EBC-1; first compound 0.03162 µM): 0.451
- relative viability (EBC-1; first compound 0.3162 µM): 0.371
- relative viability (IA-LM; first compound 0.01 µM): 0.837
- relative viability (IA-LM; first compound 0.03162 µM): 0.97
- relative viability (IA-LM; first compound 0.3162 µM): 0.848
- relative viability (NCI-H1299; first compound 0.01 µM): 1.08
- relative viability (NCI-H1299; first compound 0.03162 µM): 1.04
- relative viability (NCI-H1299; first compound 0.3162 µM): 1.08
- relative viability (NCI-H1703; first compound 0.03162 µM): 1.13
- relative viability (NCI-H1703; first compound 0.3162 µM): 1.08
